Consider three compounds from patent publication US20240409576A1, “-ent-19-norprogesterone, compositions and uses thereof to treat traumatic brain injury (TBI), including concussions-” (Oragenics, Inc., priority 2015, published 2024).

Structures are written as SMILES. In brackets after ≈: the same amount, converted by molar mass. Entries after “also recorded” stand apart in the source; their conditions may differ. Where two headings read alike, the source gives them in different places.

As usually defined, the solubility is the concentration that dissolves in the medium under given conditions. Lower therefore signals a poorly soluble substance.

In data set [1] the test system is moderate-to-severe adult TBI. The following applies: progesterone IV for 3 days after injury, cited from earlier work.
The conditions of data set [2]: under certain conditions; cited from earlier work.
Data set [3] relates to rat model of traumatic brain injury (mid-line cortical impact). The data set is classed as in vivo, Sprague-Dawley rats.
The test system is the same in data set [4]. The data set is classed as in vivo, Sprague-Dawley rats. The following applies: 48 h post-injury.
The test system is the same in data set [5]. The data set is classed as in vivo, Sprague-Dawley rats. This is another data set of the same source.
Data set [6] shares this test system. It counts as in vivo, Sprague-Dawley rats. As to conditions: for Motor function (neuroscore) compared to vehicle-treated rats: 48 h post-injury, 6 h, 24 h.
Data set [7] has the same test system. The data set is classed as in vivo, Sprague-Dawley rats. As to conditions: 48 h post-injury. The source holds these as a separate data set.
Data set [8] shares this test system. It counts as in vivo, Sprague-Dawley rats. The following applies: 48 h post-injury; for Time spent in thigmotaxia compared to vehicle-treated rats: trial not stated.
A short description of the next data set: physchem. The following applies: aqueous with cosolvent or surfactant or cyclodextrin, thermodynamic from solid.
Another data set relates to nasal mucosa of a rat. The experiment in a line: Intranasal penetration of Evans Blue labeled PRV002, atomizer vs pipette. It counts as in vivo. As to conditions: PRV002 labeled with Evans Blue dye, post-mortem evaluation. Here is the method:
The goal of this study is to evaluate the motor and cognitive function of rats treated via intranasal administration with PRV-002, an analogue of the enantiomer of progesterone, following traumatic brain injury. Prior to the initiation of the treatment study, an anatomical evaluation is performed using PRV002 labeled with Evans Blue dye to determine the optimal intranasal/intracerebral penetration of compound using intranasal administration via a miniature atomizer vs. a manual pipette.

[9] abbreviates: trial 1, intraperitoneal 4 mg/kg.
Setting [10] is: trial 1, intraperitoneal 16 mg/kg.
The mark [11] stands for this setting: trial 2, intraperitoneal 4 mg/kg.
The mark [12] stands for this setting: trial 2, intraperitoneal 16 mg/kg.
Where [13] appears, read: trial not given, intraperitoneal 4 mg/kg.
Setting [14] is: trial not given, intraperitoneal 16 mg/kg.
Where [15] appears, read: 48 h post-injury, intranasal 0.05 mg/kg.

Regarding `CC(=O)[C@H]1CC[C@H]2[C@@H]3CCC4=CC(=O)CC[C@]4(C)[C@H]3CC[C@]12C` [progesterone], the Mortality rate in data set [1] (control 30.4%) is 13.6%. For the same compound, in data set [1] (data safety monitoring board), the Serious adverse events result is “no serious adverse events attributable to progesterone treatment”.

For `CC(=O)[C@@H]1CC[C@@H]2[C@H]3CCC4=CC(=O)CC[C@@]4(C)[C@@H]3CC[C@]21C` [ent-Progesterone, ent-progesterone], in [2], the “Antioxidant activity relative to racemate” value is “three times the antioxidant activity of racemate”.

As to `CC(=O)[C@@H]1CC[C@@H]2[C@H]3CCC4=CC(=O)CC[C@H]4[C@@H]3CC[C@]21C` (single isomer, unassigned; ent-19) [PRV-002, ent-19-norpregn-4-ene-3,20-dione], the “Cognitive function (post-traumatic memory)” value in data set [3] (48 h post-injury/treatment, intranasal 4 mg/kg, trial not stated) is listed as “significant improvement in cognitive function”. The “Morris water maze memory score (cognitive performance) compared to all other groups” value in data set [3] (rat, in vivo) is on record as “all groups have significantly lower memory scores than PRV-002 4 mg/kg-treated rats”; in data set [3] (trial 1, 48 h post-injury, intranasal 4 mg/kg) it was “significantly better cognitive performance”. Moreover, the “Group differences in cognitive performance (Morris water maze memory score)” value in [3] (trial 2, 48 h post-injury, intranasal 0.05, 0.1, 1, 4 mg/kg groups) is recorded as “significant group differences in cognitive performance are not observed”. For the same compound, the “Time spent in thigmotaxia vs vehicle-treated injured rats” value in [4] (setting [9]) is listed as “vehicle-treated rats spend significantly more time in thigmotaxia”; in [4] (setting [10]), “vehicle-treated rats spend significantly more time in thigmotaxia”; in data set [4] (setting [11]), “vehicle-treated rats spend significantly more time in thigmotaxia”; in data set [4] (setting [12]) it was “vehicle-treated rats spend significantly more time in thigmotaxia”; in data set [4] (setting [13]) it was “ameliorated; also recorded: vehicle-treated injured rats spend significantly more time in thigmotaxia; also recorded: spend less time in the thigmotaxia area”; in [4] (setting [14]), “ameliorated; also recorded: vehicle-treated injured rats spend significantly more time in thigmotaxia; also recorded: spend less time in the thigmotaxia area”. Further, the “Motor function (neuroscore) compared to vehicle-treated rats” value was “significantly improved motor function” in [5] (24 h post-injury, intranasal 0.1 mg/kg); “significantly improved” in data set [5] (24 h post-injury, intranasal 0.1 mg/kg, listed as PRV002); “significantly improved motor function” in data set [5] (24 h post-injury, intranasal 4 mg/kg); “significantly improved” in data set [5] (24 h post-injury, intranasal 4 mg/kg, listed as PRV002); “significantly better motor function” in data set [5] (setting [15]); “significantly improved motor function” in data set [5] (48 h post-injury, intranasal 0.05 mg/kg, listed as PRV002). The “Motor function (neuroscore) compared to vehicle-treated rats” value in [5] (48 h post-injury, intranasal 0.1 mg/kg) is “significantly better motor function”; in data set [5] (48 h post-injury, intranasal 0.1 mg/kg, listed as PRV002), “significantly improved motor function”; in data set [5] (48 h post-injury, intranasal 4 mg/kg), “significantly better motor function”; in data set [5] (48 h post-injury, intranasal 4 mg/kg, listed as PR V-002), “significantly better motor function”; in [5] (48 h post-injury, intranasal 4 mg/kg, listed as PRV002), “significantly improved motor function”; in data set [6] (intraperitoneal 4 mg/kg at 15 min) it was “significant improvement; also recorded: significantly better motor performance; also recorded: significant attenuation of TBI-induced motor function deficits; also recorded: significantly better motor function”. The “Motor function (neuroscore) compared to vehicle-treated rats” value in data set [6] (intraperitoneal 16 mg/kg at 15 min) is “significant improvement; also recorded: significantly better motor performance; also recorded: significant attenuation of TBI-induced motor function deficits; also recorded: significantly better motor function”. Also, the “Motor performance (neuroscore) compared to sham rats” value in [5] (setting [15]) is “significantly worse performance”; in [5] (48 h post-injury, intranasal 1 mg/kg), “significantly worse performance”. In addition, the “Motor performance scores (neuroscore) compared to sham rats” value in data set [5] (rat, in vivo) is “not significantly different from sham rats”. The “Group differences in neuroscore” value in [6] (24 h post-injury, intraperitoneal 4 mg/kg or 16 mg/kg, sham, vehicle and treated groups) was “failed to reveal significant differences; also recorded: no significant group differences”. For the same compound, the Resultant solution entry (30 mg in 1 ml Solution 1, mix time 60 min) is “Hazy”; the Resultant solution entry (+0.1 ml Solution 1, ~1.1 ml, mix time 120 min) is “Hazy”; the Resultant solution result (+0.1 ml Solution 1, ~1.2 ml, mix O/N) is listed as “Hazy to Clear”. For the same compound, the “Morris water maze memory score (cognitive deficits) vs vehicle-treated injured rats” value in data set [7] (setting [9]) is recorded as “significantly attenuated TBI-related cognitive deficits”; in [7] (setting [10]) it was “significantly attenuated TBI-related cognitive deficits”; in data set [7] (setting [11]), “significantly attenuated TBI-related cognitive deficits”; in [7] (setting [12]), “significantly attenuated TBI-related cognitive deficits”; in [7] (setting [13]), “ameliorated; also recorded: vehicle-treated injured rats have significantly worse cognitive function; also recorded: amelioration of TBI-induced cognitive deficits”; in data set [7] (setting [14]), “ameliorated; also recorded: vehicle-treated injured rats have significantly worse cognitive function; also recorded: amelioration of TBI-induced cognitive deficits”. Moreover, the “Group differences in time spent in thigmotaxia” value in data set [8] (trial 1, intranasal 0.05, 0.1, 1, 4 mg/kg groups) was “no significant group differences are observed in time spent in thigmotaxia”. In addition, the “Time spent in thigmotaxia compared to vehicle-treated injured rats” value in data set [8] (trial 2, intranasal 4 mg/kg) is listed as “significantly less time in thigmotaxia”. The “Time spent in thigmotaxia compared to sham rats” value in data set [8] (trial 2, intranasal 005 mg/kg) is given as “significantly more time in thigmotaxia”. Further, the “Time spent in thigmotaxia compared to vehicle-treated rats” value in data set [8] (intranasal 4 mg/kg) was “spent significantly less time in thigmotaxia”; in data set [8] (intranasal 4 mg/kg, listed as PRV002), “significantly reduced”. The solubility in the data set “physchem” is ~23 mg/mL (≈ 76.6 mM). In addition, the “Nasal mucosal penetration, miniature atomizer vs manual pipette” value in the data set on nasal mucosa of a rat is given as “clear advantage of the miniature atomizer over the pipette technique”.
